Data taken from EP0491441A1, “Fungicidal isoquinoline derivatives” (SHELL INTERNATIONALE RESEARCH MAATSCHAPPIJ B.V., priority 1990, dated 1992).

How the values were obtained:
Format in all cases: in vivo
powdery mildew in wheat [1] = test: Curative (C) activity against powdery mildew in wheat; details: Triticum aestivum, concentration 400 ppm
Description: (§1) In further tests, the residual (R) and curative (C) activities of various compounds against powdery mildew in barley and wheat was determined at various concentrations of the test compounds.

powdery mildew in barley [2] = test: Curative (C) activity against powdery mildew in barley; details: Hordeum vulgare, concentration 100 ppm
Description: as §1

powdery mildew in barley [3] = test: Residual (R) activity against powdery mildew in barley; details: Hordeum vulgare
Description: as §1

powdery mildew in wheat [4] = test: Residual (R) activity against powdery mildew in wheat; details: Triticum aestivum, concentration 400 ppm
Description: as §1

SMILES	activity at 400 ppm (powdery mildew in wheat [1]) [%]	activity at 100 ppm (powdery mildew in barley [2]) [%]	activity at 100 ppm (powdery mildew in barley [3]; concentration 100 ppm) [%]	activity at 400 ppm (powdery mildew in wheat [4]) [%]	activity at 400 ppm (powdery mildew in barley [3]; concentration 400 ppm) [%]
CCCOc1cc2c(-c3c(Cl)cccc3Cl)[n+]([O-])ccc2cc1OCC [Example 6, 1-(2,6-Dichlorophenyl)-6-ethoxy-7-propoxyisoquinoline N-oxide]	68.5	100	100	98.8	–
CCCOc1cc2c(cc1OCC)CC[N+]([O-])=C2c1ccccc1[N+](=O)[O-] [Example 7, 1-(2-nitrophenyl)-3,4-dihydro-6-ethoxy-7-propoxyisoquinoline-N-oxide]	23	100	–	94	75
